Data from patent US5510331A, “Antihypertensive peptides” (Roussel UCLAF, priority 1990, dated 1996).
Where a SMILES comes first, the peptide text is derived from it. Bridges are numbered along the chain shown (N, C = ends). [ ]: non-standard residue; d: D form. d2Nal = N[C@H](Cc1ccc2ccccc2c1)C(=O)O; Nle = CCCC[C@H](N)C(=O)O

Target: endotheline receptor
Assay: Activity on the endotheline receptor: displacement of 125I endotheline from rat brain membrane preparation
Type: binding
Settings: membrane preparation from rat posterior cortex and brain, 25° C., 60 minutes, 7 concentrations, read-out: IC50 (50% inhibiting concentration; concentration necessary to displace 50% of the specific radioactivity fixed on the receptor)
Description: A membrane preparation was made from rat posterior cortex and brain and the tissue was ground with a POLYTRON in a 50 mM Tris buffer pH=7.4. After 30 minutes at 25° C. (W.B.), the homogenate was centrifuged at 30,000 g for 15 minutes (2 centrifugations with intermediate taking up in the Tris buffer pH 7.4). The deposits were suspended in an incubation buffer (Tris 25 mM, pepstatine A 5 microg/ml, aprotinine 3 microg/ml, PMSF 0.1 mM, EDTA 3 mM, EGTA 1 mM pH 7.4). 2 ml aliquots were distributed in hemolysis tubes and ^125 I endotheline (approximately 50,000 dpm/tube) and the product to be studied were added. The product was first tested at 3×10^-5 M in triplicate. When the product tested displaced more than 50% of radioactivity linked specifically to the receptor, it was tested again in a range of 7 concentrations to determine the concentration which inhibited the radioactivity linked specifically to the receptor by 50%. In this way, the 50% inhibiting concentration was determined.
The non-specific bond was determined by the addition of endotheline at 10^-6 M (in triplicate) and the deposits were incubated at 25° C. for 60 minutes, put in a water-bath at 0° C. for 5 minutes, filtered under reduced pressure and rinsed with a Tris buffer 7.4 pH. The radioactivity was counted in the presence of scintillating Triton. The result was expressed directly as a 50% inhibiting concentration (IC50), or the concentration of product studied expressed in nM necessary to displace 50% of the specific radioactivity fixed on the receptor studied.

| Structure (SMILES) | IC50 [nM] |
| --- | --- |
| CC[C@H](C)[C@H](NC(=O)[C@H](CC(=O)O)NC(=O)[C@H](CCC(N)=O)NC(=O)[C@H](Cc1c[nH]cn1)NC(=O)[C@@H]1CSSC[C@H](N)C(=O)N[C@@H](CO)C(=O)N[C@H]2CSSC[C@H](NC(=O)[C@H](CCC(=O)O)NC(=O)[C@H](CCCCN)NC(=O)[C@H](CC(=O)O)NC(=O)[C@H](CCSC)NC(=O)[C@H](CC(C)C)NC(=O)[C@H](CO)NC(=O)[C@H](CO)NC2=O)C(=O)N[C@@H](CC(C)C)C(=O)N[C@@H](Cc2ccc(O)cc2)C(=O)N[C@@H](Cc2ccccc2)C(=O)N1)C(=O)N[C@H](C(=O)N[C@@H](Cc1c[nH]c2ccccc12)C(=O)O)[C@@H](C)CC [Example 13] (H-CSCSSLMDKECLYFCHQDIIW-OH; disulfide 1-15, 3-11) | 3.5 |
| CCCC[C@@H]1NC(=O)[C@H](CC(C)C)NC(=O)[C@H](CO)NC(=O)[C@H](CO)NC(=O)[C@@H]2CSSC[C@H](NC(=O)[C@H](CCC(=O)O)NC(=O)[C@H](CCCCN)NC(=O)[C@H](CC(=O)O)NC1=O)C(=O)N[C@@H](C(C)C)C(=O)N[C@@H](Cc1ccc(O)cc1)C(=O)N[C@@H](Cc1ccccc1)C(=O)N[C@H](C(=O)N[C@@H](Cc1c[nH]cn1)C(=O)N[C@@H](CCC(N)=O)C(=O)N[C@@H](CC(=O)O)C(=O)N[C@H](C(=O)N[C@H](C(=O)N[C@@H](Cc1c[nH]c3ccccc13)C(=O)O)[C@@H](C)CC)[C@@H](C)CC)CSSC[C@H](N)C(=O)N[C@@H](CO)C(=O)N2 [Example 12] (H-CSCSSL[Nle]DKECVYFCHQDIIW-OH; disulfide 1-15, 3-11) | 2.3 |
| CC[C@H](C)[C@H](NC(=O)[C@H](CC(=O)O)NC(=O)[C@H](CC(C)C)NC(=O)[C@H](Cc1c[nH]cn1)NC(=O)[C@@H]1CSSC[C@H](N)C(=O)N[C@@H](CC(C)C)C(=O)N[C@@H](C)C(=O)NCC(=O)N2CCC[C@H]2C(=O)N[C@@H](CC(N)=O)C(=O)NCC(=O)N[C@@H](Cc2ccc(O)cc2)C(=O)N1)C(=O)N[C@H](C(=O)N[C@@H](Cc1c[nH]c2ccccc12)C(=O)O)[C@@H](C)CC [Example 9] (H-CLAGPNGYCHLDIIW-OH; disulfide 1-9) | 7500 |
| CC[C@H](C)[C@H](NC(=O)[C@H](CC(=O)O)NC(=O)[C@H](CC(C)C)NC(=O)[C@H](Cc1c[nH]cn1)NC(=O)[C@@H]1CSSC[C@H](N)C(=O)N[C@@H]([C@@H](C)O)C(=O)N[C@H]2CSSC[C@H](NC(=O)[C@H](CCC(=O)O)NC(=O)[C@H](CCCCN)NC(=O)[C@H](CC(=O)O)NC(=O)[C@H]([C@@H](C)O)NC(=O)[C@H](CCSC)NC(=O)[C@H](CC(=O)O)NC(=O)[C@H](CCCCN)NC2=O)C(=O)N[C@@H](C(C)C)C(=O)N[C@@H](Cc2ccc(O)cc2)C(=O)N[C@@H](Cc2ccccc2)C(=O)N1)C(=O)N[C@H](C(=O)N[C@@H](Cc1c[nH]c2ccccc12)C(=O)O)[C@@H](C)CC [Example 11] (H-CTCKDMTDKECVYFCHLDIIW-OH; disulfide 1-15, 3-11) | 1.3 |
| CCCC[C@@H]1NC(=O)[C@H](CC(C)C)NC(=O)[C@H](CO)NC(=O)[C@H](CO)NC(=O)[C@@H]2CSSC[C@H](NC(=O)[C@H](CCC(=O)O)NC(=O)[C@H](CCCCN)NC(=O)[C@H](CC(=O)O)NC1=O)C(=O)N[C@@H](C(C)C)C(=O)N[C@@H](Cc1ccc(O)cc1)C(=O)N[C@@H](Cc1ccccc1)C(=O)N[C@H](C(=O)N[C@@H](Cc1c[nH]cn1)C(=O)N[C@@H](CC(C)C)C(=O)N[C@@H](CC(=O)O)C(=O)N[C@H](C(=O)N[C@H](C(=O)N[C@H](Cc1ccc3ccccc3c1)C(=O)O)[C@@H](C)CC)[C@@H](C)CC)CSSC[C@H](N)C(=O)N[C@@H](CO)C(=O)N2 [Example 3, (Nle-7)-DiNaphtylalanine-21-ET1 derivative] (H-CSCSSL[Nle]DKECVYFCHLDII[d2Nal]-OH; disulfide 1-15, 3-11) | 2 |
| CCCC[C@@H]1NC(=O)[C@H](CC(C)C)NC(=O)[C@H](CO)NC(=O)[C@H](CO)NC(=O)[C@@H](N)CSSC[C@@H](C(=O)N[C@@H](Cc2c[nH]cn2)C(=O)N[C@@H](CC(C)C)C(=O)N[C@@H](CC(=O)O)C(=O)N[C@H](C(=O)N[C@H](C(=O)N[C@@H](Cc2c[nH]c3ccccc23)C(=O)O)[C@@H](C)CC)[C@@H](C)CC)NC(=O)[C@H](CCC(=O)O)NC(=O)[C@H](CCCCN)NC(=O)[C@H](CC(=O)O)NC1=O [Example 7] (H-CSSL[Nle]DKECHLDIIW-OH; disulfide 1-9) | 3520 |
| CC[C@H](C)[C@H](NC(=O)[C@H](CC(=O)O)NC(=O)[C@H](CC(C)C)NC(=O)[C@H](Cc1c[nH]cn1)NC(=O)[C@H](CS)NC(=O)[C@H](Cc1ccc(O)cc1)NC(=O)CNC(=O)[C@H](CC(N)=O)NC(=O)[C@@H]1CCCN1C(=O)CNC(=O)[C@H](C)NC(=O)[C@H](CC(C)C)NC(=O)[C@@H](N)CS)C(=O)N[C@H](C(=O)N[C@@H](Cc1c[nH]c2ccccc12)C(=O)O)[C@@H](C)CC [Example 10] (H-CLAGPNGYCHLDIIW-OH) | 620 |
| CC[C@H](C)[C@H](NC(=O)[C@H](CC(=O)O)NC(=O)[C@H](CCCNC(=N)N)NC(=O)[C@H](Cc1c[nH]cn1)NC(=O)[C@@H]1CSSC[C@H](N)C(=O)N[C@@H]([C@@H](C)O)C(=O)N[C@H]2CSSC[C@H](NC(=O)[C@H](CCC(=O)O)NC(=O)[C@H](CCCCN)NC(=O)[C@H](CC(=O)O)NC(=O)[C@H]([C@@H](C)O)NC(=O)[C@H](CCSC)NC(=O)[C@H](CC(=O)O)NC(=O)[C@H](CCCCN)NC2=O)C(=O)N[C@@H](CC(C)C)C(=O)N[C@@H](Cc2ccc(O)cc2)C(=O)N[C@@H](Cc2ccccc2)C(=O)N1)C(=O)N[C@H](C(=O)N[C@@H](Cc1c[nH]c2ccccc12)C(=O)O)[C@@H](C)CC [Example 15] (H-CTCKDMTDKECLYFCHRDIIW-OH; disulfide 1-15, 3-11 (inferred); N-terminus assumed) | 1.8 |
| CC[C@H](C)[C@H](NC(=O)[C@H](CC(=O)O)NC(=O)[C@H](CC(C)C)NC(=O)[C@H](Cc1c[nH]cn1)NC(=O)[C@@H]1CSSC[C@H](N)C(=O)N[C@@H](CO)C(=O)N[C@H]2CSSC[C@H](NC(=O)[C@H](CCC(=O)O)NC(=O)[C@H](CCCCN)NC(=O)[C@H](CC(=O)O)NC(=O)CNC(=O)[C@H](CC(C)C)NC(=O)[C@H](CO)NC(=O)[C@H](CO)NC2=O)C(=O)N[C@@H](C(C)C)C(=O)N[C@@H](Cc2ccc(O)cc2)C(=O)N[C@@H](Cc2ccccc2)C(=O)N1)C(=O)N[C@H](C(=O)N[C@@H](Cc1c[nH]c2ccccc12)C(=O)O)[C@@H](C)CC [Example 2, (Gly-7)--ET1 derivative] (H-CSCSSLGDKECVYFCHLDIIW-OH; disulfide 1-15, 3-11) | 1.4 |
| CCCC[C@H](NC(=O)[C@H](CC(C)C)NC(=O)[C@H](CO)NC(=O)[C@H](CO)NC(=O)[C@@H](N)CS)C(=O)N[C@@H](CC(=O)O)C(=O)N[C@@H](CCCCN)C(=O)N[C@@H](CCC(=O)O)C(=O)N[C@@H](CS)C(=O)N[C@@H](Cc1c[nH]cn1)C(=O)N[C@@H](CC(C)C)C(=O)N[C@@H](CC(=O)O)C(=O)N[C@H](C(=O)N[C@H](C(=O)N[C@@H](Cc1c[nH]c2ccccc12)C(=O)O)[C@@H](C)CC)[C@@H](C)CC [Example 8] (H-CSSL[Nle]DKECHLDIIW-OH) | 5350 |
